From ChEMBL document CHEMBL3120141, “Discovery of (1R,6S)-5-[4-(1-cyclobutyl-piperidin-4-yloxy)-phenyl]-3,4-diaza-bicyclo[4.1.0]hept-4-en-2-one (R,S-4a): histamine H(3) receptor inverse agonist demonstrating potent cognitive enhancing and wake promoting activity” (Bioorg Med Chem Lett, 2014)
Values after ≈ are worked out from the molar mass of the structure shown. Values belong to the compound of their own block, whether it stands above or below them. Active and inactive are the calls of the source. No cut-off for these calls is given here.

Legend:
[1] = organism: Homo sapiens; test: Selectivity ratio for human histamine H3 receptor over human histamine H4 receptor
[2] = organism: Homo sapiens; test: Selectivity ratio for human histamine H3 receptor over human histamine H2 receptor
[3] = organism: Homo sapiens; test: Selectivity ratio for human histamine H3 receptor over human histamine H1 receptor
[4] = target: Histamine H3 receptor (Rattus norvegicus, UniProt Q9QYN8); test: Displacement of [3H]NAMH from rat histamine H3 receptor transfected in CHO cells; format: cell-based
[5] = target: T1, Histamine H3 receptor (Homo sapiens, UniProt Q9Y5N1); test: Displacement of [3H]NAMH from human histamine H3 receptor transfected in CHO cells; format: cell-based
[6] = target: T1, Histamine H3 receptor; test: Inverse agonist activity at human histamine H3 receptor by [35S]GTPgammaS binding assay; format: functional
[7] = system: Rattus norvegicus; test: Enhancement of short term memory in rat social recognition memory model assessed as decrease in investigation ratio at 0.03 to 0.3 mg/kg, po; format: functional, organism-based
[8] = system: Rattus norvegicus; test: Toxicity in EEG/EMG rat model assessed as EEG activity at 1 to 30 mg/kg, ip; format: organism-based; design: dose 1-30 mg/kg, route intraperitoneal; settings: in vivo
[9] = system: Rattus norvegicus; test: Toxicity in EEG/EMG rat model assessed as sleep rebound at 1 to 30 mg/kg, ip; format: organism-based; design: dose 1-30 mg/kg, route intraperitoneal; settings: in vivo
[10] = system: Rattus norvegicus; test: Toxicity in EEG/EMG rat model assessed as abnormal behavior at 1 to 30 mg/kg, ip; format: organism-based; design: dose 1-30 mg/kg, route intraperitoneal; settings: in vivo
[11] = system: Rattus norvegicus; test: Wake promoting activity in EEG/EMG rat model assessed as cumulative wake time at 30 mg/kg, ip after 7.5 to 18 hrs relative to vehicle-treated control; format: functional; settings: route intraperitoneal
[12] = system: Rattus norvegicus; test: Wake promoting activity in EEG/EMG rat model assessed as cumulative wake time at 30 mg/kg, ip after 1.5 hrs relative to vehicle-treated control; format: functional; settings: route intraperitoneal
[13] = system: Rattus norvegicus; test: Wake promoting activity in EEG/EMG rat model assessed as cumulative wake time at 30 mg/kg, ip after 4 hrs (reference value: 86 +/- 7 mins); format: functional; settings: route intraperitoneal
[14] = system: Rattus norvegicus; test: Wake promoting activity in EEG/EMG rat model assessed as cumulative wake time at 10 mg/kg, ip after 4 hrs (reference value: 86 +/- 7 mins); format: functional; settings: route intraperitoneal
[15] = system: Rattus norvegicus; test: Wake promoting activity in EEG/EMG rat model assessed as cumulative wake time at 10 mg/kg, ip after 1.5 hrs relative to vehicle-treated control; format: functional; settings: route intraperitoneal
[16] = system: Rattus norvegicus; test: Wake promoting activity in EEG/EMG rat model assessed as cumulative wake time at 3 mg/kg, ip after 4 hrs (reference value: 86 +/- 7 mins); format: functional; settings: route intraperitoneal
[17] = system: Rattus norvegicus; test: Wake promoting activity in EEG/EMG rat model assessed as cumulative wake time at 1 mg/kg, ip after 4 hrs (reference value: 86 +/- 7 mins); format: functional; settings: route intraperitoneal
[18] = system: Rattus norvegicus; test: Wake promoting activity in ip dosed EEG/EMG rat model assessed as cumulative wake time after 4 hrs; format: functional, organism-based
[19] = Ratio of drug uptake in brain to plasma in dog at 5 mg/kg, po after 6 hrs; format: ADME, organism-based, Canis lupus familiaris; design: dose 5 mg/kg, route oral; settings: read-out: BPR
[20] = Ratio of drug uptake in brain to plasma in rat at 10 mg/kg, ip after 6 hrs; format: ADME, organism-based; design: dose 10 mg/kg, route intraperitoneal; settings: read-out: BPR
[21] = Oral bioavailability in dog at 3 mg/kg; format: ADME, organism-based, Canis lupus familiaris; settings: in vivo
[22] = Oral bioavailability in monkey at 3 mg/kg; format: ADME, organism-based, Macaca mulatta; settings: rhesus monkey, in vivo
[23] = Oral bioavailability in rat at 5 mg/kg; format: ADME, organism-based; settings: in vivo
[24] = system: Rattus norvegicus; test: In vivo inhibition of histamine H3 receptor in ip dosed rat dipsogenia model assessed as inhibition of RAMH-induced dipsogenia; format: functional
[25] = Cmax in monkey at 3 mg/kg, po; format: ADME, organism-based, Macaca mulatta; design: dose 3 mg/kg, route oral; settings: rhesus monkey, in vivo
[26] = Cmax in dog at 3 mg/kg, po; format: ADME, organism-based, Canis lupus familiaris; design: dose 3 mg/kg, route oral; settings: in vivo
[27] = Cmax in rat at 5 mg/kg, po; format: ADME, organism-based; design: dose 5 mg/kg, route oral; settings: in vivo
[28] = AUC in dog at 3 mg/kg, po; format: ADME, organism-based, Canis lupus familiaris; design: dose 3 mg/kg, route oral; settings: plasma
[29] = AUC in monkey at 3 mg/kg, po; format: ADME, organism-based, Macaca mulatta; design: dose 3 mg/kg, route oral; settings: rhesus monkey, plasma
[30] = AUC in rat at 5 mg/kg, po; format: ADME, organism-based, Plasma; design: dose 5 mg/kg, route oral; settings: plasma
[31] = Clearance in monkey at 1 mg/kg, iv; format: ADME, organism-based, Macaca mulatta; design: dose 1 mg/kg, route intravenous; settings: rhesus monkey, in vivo
[32] = Clearance in dog at 1 mg/kg, iv; format: ADME, organism-based, Canis lupus familiaris; design: dose 1 mg/kg, route intravenous; settings: in vivo
[33] = Clearance in rat at 1 mg/kg, iv; format: ADME, organism-based; design: dose 1 mg/kg, route intravenous; settings: in vivo
[34] = Volume of distribution at steady state in monkey at 1 mg/kg, iv; format: ADME, organism-based, Macaca mulatta; design: dose 1 mg/kg, route intravenous; settings: rhesus monkey, in vivo, read-out: Vdss
[35] = Volume of distribution at steady state in rat at 1 mg/kg, iv; format: ADME, organism-based; design: dose 1 mg/kg, route intravenous; settings: in vivo, read-out: Vdss
[36] = Volume of distribution at steady state in dog at 1 mg/kg, iv; format: ADME, organism-based, Canis lupus familiaris; design: dose 1 mg/kg, route intravenous; settings: in vivo, read-out: Vdss
[37] = Terminal half life in monkey at 1 mg/kg, iv; format: ADME, organism-based, Macaca mulatta; design: dose 1 mg/kg, route intravenous; settings: rhesus monkey, in vivo, read-out: beta t1/2 (converted)
[38] = Terminal half life in dog at 1 mg/kg, iv; format: ADME, organism-based, Canis lupus familiaris; design: dose 1 mg/kg, route intravenous; settings: in vivo, read-out: beta t1/2 (converted)
[39] = Terminal half life in rat at 1 mg/kg, iv; format: ADME, organism-based; design: dose 1 mg/kg, route intravenous; settings: in vivo, read-out: beta t1/2 (converted)
[40] = Solubility of the compound in water at pH 2; format: physicochemical
[41] = Solubility of the compound in water at pH 7.4; format: physicochemical
[42] = Plasma protein binding in human; format: ADME, cell-free; settings: read-out: PPB (converted)
[43] = Plasma protein binding in dog; format: ADME, cell-free, Canis lupus familiaris; settings: read-out: PPB (converted)
[44] = Plasma protein binding in rat; format: ADME, cell-free; settings: read-out: PPB (converted)
[45] = target: Voltage-gated inwardly rectifying potassium channel KCNH2 (Homo sapiens, UniProt Q12809); test: Inhibition of human ERG channel by patch clamp technique
[46] = Apparent permeability across human Caco2 cells; format: ADME, cell-based; settings: Caco-2
[47] = target: Histamine H4 receptor (Homo sapiens) (UniProt Q9H3N8); test: Inhibition of human histamine H4 receptor at 10 uM
[48] = target: Histamine H1 receptor (Homo sapiens) (UniProt P35367); test: Inhibition of human histamine H1 receptor at 10 uM
[49] = target: Histamine H2 receptor (Homo sapiens) (UniProt P25021); test: Inhibition of human histamine H2 receptor at 10 uM
[50] = Half life in human liver microsomes; format: ADME
[51] = Half life in monkey liver microsomes; format: ADME, Macaca mulatta, Microsome; settings: rhesus monkey
[52] = Half life in rat liver microsomes; format: ADME
[53] = Half life in dog liver microsomes; format: ADME, Canis lupus familiaris
[54] = Half life in mouse liver microsomes; format: ADME, Microsome
[55] = target: Cytochrome P450 3A4 (Homo sapiens, UniProt P08684); test: Inhibition of CYP3A4 (unknown origin); format: ADME
[56] = target: Cytochrome P450 2D6 (Homo sapiens, UniProt P10635); test: Inhibition of CYP2D6 (unknown origin); format: ADME
[57] = target: Cytochrome P450 2C9 (Homo sapiens, UniProt P11712); test: Inhibition of CYP2C9 (unknown origin); format: ADME
[58] = target: Cytochrome P450 2C19 (Homo sapiens, UniProt P33261); test: Inhibition of CYP2C19 (unknown origin); format: ADME
[59] = target: T2, Cytochrome P450 1A2 (Homo sapiens, UniProt P05177); test: Inhibition of CYP1A2 (unknown origin); format: ADME
T2 sequence (P05177 whole entry): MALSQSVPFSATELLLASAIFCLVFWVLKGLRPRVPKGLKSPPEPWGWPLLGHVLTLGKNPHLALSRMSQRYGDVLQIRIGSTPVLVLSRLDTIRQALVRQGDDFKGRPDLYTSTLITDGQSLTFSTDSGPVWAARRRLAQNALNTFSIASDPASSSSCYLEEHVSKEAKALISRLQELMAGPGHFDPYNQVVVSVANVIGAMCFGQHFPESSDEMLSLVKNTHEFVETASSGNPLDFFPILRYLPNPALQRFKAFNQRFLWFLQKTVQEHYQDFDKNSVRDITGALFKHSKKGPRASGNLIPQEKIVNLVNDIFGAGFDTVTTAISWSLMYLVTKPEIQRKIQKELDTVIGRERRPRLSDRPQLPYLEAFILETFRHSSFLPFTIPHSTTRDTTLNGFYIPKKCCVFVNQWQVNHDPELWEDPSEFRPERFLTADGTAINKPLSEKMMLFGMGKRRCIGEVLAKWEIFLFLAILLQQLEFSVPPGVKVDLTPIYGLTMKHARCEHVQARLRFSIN

Chain of Histamine H3 receptor (Rattus norvegicus, UniProt Q9QYN8) (Q9QYN8 whole entry): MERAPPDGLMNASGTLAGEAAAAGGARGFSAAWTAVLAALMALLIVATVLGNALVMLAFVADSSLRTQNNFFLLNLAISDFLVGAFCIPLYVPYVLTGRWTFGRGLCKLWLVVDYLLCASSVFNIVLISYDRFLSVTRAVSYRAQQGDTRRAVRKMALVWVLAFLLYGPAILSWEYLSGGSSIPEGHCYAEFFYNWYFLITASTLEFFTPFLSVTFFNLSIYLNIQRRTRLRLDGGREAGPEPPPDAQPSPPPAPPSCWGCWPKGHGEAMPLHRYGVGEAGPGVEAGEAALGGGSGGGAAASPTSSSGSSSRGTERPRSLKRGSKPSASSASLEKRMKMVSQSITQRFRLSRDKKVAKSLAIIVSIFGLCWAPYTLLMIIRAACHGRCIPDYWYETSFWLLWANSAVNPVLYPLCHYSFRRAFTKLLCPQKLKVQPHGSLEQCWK
T1 sequence (Q9Y5N1 whole entry): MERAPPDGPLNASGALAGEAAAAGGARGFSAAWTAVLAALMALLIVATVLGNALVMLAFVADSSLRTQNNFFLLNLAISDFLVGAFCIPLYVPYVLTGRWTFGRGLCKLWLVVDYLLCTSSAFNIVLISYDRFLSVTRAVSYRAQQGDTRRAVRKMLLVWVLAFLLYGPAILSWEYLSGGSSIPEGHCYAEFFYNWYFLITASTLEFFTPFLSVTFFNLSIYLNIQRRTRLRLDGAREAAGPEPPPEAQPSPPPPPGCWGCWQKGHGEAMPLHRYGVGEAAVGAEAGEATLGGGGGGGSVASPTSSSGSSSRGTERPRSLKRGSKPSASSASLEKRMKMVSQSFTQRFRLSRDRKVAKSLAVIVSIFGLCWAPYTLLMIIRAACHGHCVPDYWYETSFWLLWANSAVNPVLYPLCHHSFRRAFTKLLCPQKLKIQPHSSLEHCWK
Chain of Cytochrome P450 2C19 (P33261 whole entry): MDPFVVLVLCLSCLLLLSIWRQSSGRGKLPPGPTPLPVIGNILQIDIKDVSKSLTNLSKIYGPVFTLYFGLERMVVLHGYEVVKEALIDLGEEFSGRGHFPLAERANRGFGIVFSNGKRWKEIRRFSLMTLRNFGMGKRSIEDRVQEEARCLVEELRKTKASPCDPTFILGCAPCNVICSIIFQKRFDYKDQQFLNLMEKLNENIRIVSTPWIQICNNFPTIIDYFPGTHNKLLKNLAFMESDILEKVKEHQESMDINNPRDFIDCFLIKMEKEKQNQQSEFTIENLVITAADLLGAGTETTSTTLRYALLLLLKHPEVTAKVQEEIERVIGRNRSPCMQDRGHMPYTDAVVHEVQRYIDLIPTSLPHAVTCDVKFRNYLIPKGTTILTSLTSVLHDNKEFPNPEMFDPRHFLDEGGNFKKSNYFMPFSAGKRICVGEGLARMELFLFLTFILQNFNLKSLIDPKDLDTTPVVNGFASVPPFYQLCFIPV
Chain of Cytochrome P450 2C9 (P11712 whole entry): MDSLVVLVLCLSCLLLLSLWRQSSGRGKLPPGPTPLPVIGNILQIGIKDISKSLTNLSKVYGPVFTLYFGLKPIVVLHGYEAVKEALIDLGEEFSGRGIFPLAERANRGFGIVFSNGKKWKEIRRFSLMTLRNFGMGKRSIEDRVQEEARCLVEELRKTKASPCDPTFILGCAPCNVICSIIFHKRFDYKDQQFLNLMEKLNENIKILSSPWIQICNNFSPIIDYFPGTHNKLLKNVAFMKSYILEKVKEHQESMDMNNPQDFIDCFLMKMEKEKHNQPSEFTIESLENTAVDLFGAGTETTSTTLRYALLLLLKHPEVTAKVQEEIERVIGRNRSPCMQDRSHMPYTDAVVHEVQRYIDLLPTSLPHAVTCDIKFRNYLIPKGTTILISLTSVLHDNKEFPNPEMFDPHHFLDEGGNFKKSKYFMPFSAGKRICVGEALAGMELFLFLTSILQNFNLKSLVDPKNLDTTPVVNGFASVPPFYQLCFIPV
Chain of Cytochrome P450 3A4 (P08684 whole entry): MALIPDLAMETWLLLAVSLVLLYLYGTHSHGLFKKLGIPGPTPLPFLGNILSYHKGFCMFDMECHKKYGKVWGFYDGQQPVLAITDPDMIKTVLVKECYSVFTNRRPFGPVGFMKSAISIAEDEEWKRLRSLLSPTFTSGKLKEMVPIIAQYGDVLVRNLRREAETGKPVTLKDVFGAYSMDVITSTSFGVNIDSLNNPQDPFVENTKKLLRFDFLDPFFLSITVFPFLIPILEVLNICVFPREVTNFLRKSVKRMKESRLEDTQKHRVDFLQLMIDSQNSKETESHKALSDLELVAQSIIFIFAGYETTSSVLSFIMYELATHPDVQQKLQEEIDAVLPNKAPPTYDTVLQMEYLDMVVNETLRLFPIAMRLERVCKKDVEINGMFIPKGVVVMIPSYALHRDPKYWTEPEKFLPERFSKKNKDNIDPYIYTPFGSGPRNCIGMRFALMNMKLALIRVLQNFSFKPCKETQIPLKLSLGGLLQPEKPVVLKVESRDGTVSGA
Chain of Cytochrome P450 2D6 (P10635 whole entry): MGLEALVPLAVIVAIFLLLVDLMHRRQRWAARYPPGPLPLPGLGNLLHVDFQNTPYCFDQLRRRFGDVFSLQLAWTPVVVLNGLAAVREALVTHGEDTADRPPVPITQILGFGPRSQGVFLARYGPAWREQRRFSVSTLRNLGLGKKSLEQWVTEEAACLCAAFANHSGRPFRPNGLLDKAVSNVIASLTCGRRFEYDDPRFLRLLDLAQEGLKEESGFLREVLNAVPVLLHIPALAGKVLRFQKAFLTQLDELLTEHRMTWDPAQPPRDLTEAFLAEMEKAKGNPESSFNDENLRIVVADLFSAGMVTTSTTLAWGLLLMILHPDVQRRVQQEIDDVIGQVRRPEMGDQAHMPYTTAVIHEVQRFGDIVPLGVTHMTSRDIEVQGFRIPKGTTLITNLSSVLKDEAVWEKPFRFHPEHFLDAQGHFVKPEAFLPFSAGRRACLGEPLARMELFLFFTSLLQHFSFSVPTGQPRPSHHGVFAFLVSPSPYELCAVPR
Chain of Histamine H1 receptor (Homo sapiens) (P35367 whole entry): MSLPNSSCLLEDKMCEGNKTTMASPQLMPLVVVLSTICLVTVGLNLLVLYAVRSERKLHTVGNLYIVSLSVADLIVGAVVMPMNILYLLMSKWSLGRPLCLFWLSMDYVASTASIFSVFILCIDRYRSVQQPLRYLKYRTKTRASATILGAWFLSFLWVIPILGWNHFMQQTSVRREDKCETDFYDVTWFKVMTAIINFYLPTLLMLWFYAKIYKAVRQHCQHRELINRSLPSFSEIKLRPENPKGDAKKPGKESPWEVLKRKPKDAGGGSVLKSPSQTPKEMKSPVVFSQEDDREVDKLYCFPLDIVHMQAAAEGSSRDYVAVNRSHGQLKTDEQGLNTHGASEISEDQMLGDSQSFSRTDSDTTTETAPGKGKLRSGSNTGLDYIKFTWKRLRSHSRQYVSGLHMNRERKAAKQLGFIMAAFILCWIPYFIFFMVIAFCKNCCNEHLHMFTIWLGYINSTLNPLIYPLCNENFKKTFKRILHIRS
Chain of Histamine H2 receptor (Homo sapiens) (P25021 whole entry): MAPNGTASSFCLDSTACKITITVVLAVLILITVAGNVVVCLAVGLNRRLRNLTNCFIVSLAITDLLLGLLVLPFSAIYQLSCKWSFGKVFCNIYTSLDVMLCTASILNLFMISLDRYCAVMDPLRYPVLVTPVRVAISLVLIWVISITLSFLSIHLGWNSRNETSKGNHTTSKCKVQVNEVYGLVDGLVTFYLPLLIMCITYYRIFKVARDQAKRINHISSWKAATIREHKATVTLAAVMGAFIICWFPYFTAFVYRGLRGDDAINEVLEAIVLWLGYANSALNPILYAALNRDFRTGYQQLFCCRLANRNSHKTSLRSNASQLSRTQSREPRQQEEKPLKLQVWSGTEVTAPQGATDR
Chain of Voltage-gated inwardly rectifying potassium channel KCNH2 (Q12809 whole entry): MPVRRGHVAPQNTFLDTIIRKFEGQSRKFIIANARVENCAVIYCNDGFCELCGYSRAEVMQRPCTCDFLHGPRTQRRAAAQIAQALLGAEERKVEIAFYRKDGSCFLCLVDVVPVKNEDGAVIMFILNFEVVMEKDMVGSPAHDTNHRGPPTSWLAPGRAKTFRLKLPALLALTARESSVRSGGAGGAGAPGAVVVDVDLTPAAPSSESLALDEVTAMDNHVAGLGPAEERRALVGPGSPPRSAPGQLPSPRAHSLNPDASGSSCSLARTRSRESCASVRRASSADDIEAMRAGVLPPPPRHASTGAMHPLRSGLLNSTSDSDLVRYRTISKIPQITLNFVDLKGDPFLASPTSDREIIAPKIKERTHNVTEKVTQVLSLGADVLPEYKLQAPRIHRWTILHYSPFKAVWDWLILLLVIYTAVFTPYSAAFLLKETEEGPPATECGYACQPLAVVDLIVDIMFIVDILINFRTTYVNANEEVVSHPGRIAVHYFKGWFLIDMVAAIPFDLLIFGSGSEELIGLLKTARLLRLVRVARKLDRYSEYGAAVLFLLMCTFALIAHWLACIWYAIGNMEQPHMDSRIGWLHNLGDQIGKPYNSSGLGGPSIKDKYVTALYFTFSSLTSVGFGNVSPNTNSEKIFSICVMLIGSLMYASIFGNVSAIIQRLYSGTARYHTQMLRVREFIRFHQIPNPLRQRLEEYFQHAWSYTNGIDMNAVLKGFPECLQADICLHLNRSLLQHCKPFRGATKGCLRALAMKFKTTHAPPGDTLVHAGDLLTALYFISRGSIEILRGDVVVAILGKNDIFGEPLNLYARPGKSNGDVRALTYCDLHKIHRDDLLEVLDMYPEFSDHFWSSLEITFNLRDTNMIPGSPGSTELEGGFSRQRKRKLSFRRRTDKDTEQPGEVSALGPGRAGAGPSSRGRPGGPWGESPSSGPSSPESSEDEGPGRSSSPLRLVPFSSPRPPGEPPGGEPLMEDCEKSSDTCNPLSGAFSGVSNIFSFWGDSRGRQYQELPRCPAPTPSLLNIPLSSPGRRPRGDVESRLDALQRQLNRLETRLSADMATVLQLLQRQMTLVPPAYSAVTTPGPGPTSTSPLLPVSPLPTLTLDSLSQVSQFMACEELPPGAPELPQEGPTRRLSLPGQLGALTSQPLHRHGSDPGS

Selectivity ratio [1]: > 1000 | Selectivity ratio [2]: > 1000 | Selectivity ratio [3]: > 1000 | Ki [4]: 5.6 nM | Ki [5]: 6.9 nM
Structure (SMILES): CC(C)N1N=C(c2ccc(OC3CCN(C4CCC4)CC3)cc2)C2CC2C1=O (racemic)

Selectivity ratio [1]: > 1000 | Selectivity ratio [2]: > 1000 | Selectivity ratio [3]: > 1000 | Ki [4]: 8 nM | Ki [5]: 4.5 nM
Structure (SMILES): CCN1N=C(c2ccc(OC3CCN(C4CCC4)CC3)cc2)C2CC2C1=O (racemic)

EC50 [6]: 0.4 nM | Kp at 6 h [19]: 5.1 | Kp at 6 h [20]: 3.6 | bioavailability [21]: 94% | bioavailability [22]: 114% | bioavailability [23]: 92% | Cmax [25]: 645 ng/mL | Cmax [26]: 502 ng/mL | Cmax [27]: 888 ng/mL | AUC [28]: 2960 ng·h/mL | AUC [29]: 7190 ng·h/mL | AUC [30]: 8320 ng·h/mL | clearance [31]: 8 mL/min/kg | clearance [32]: 16 mL/min/kg | clearance [33]: 17 mL/min/kg | Vd [34]: 6 L/kg | Vd [35]: 3.7 L/kg | Vd [36]: 4.1 L/kg | half-life [37]: 516 min | half-life [38]: 180 min | half-life [39]: 156 min | solubility [40]: > 1000 µg/mL | solubility [41]: 800 µg/mL (≈ 2360 µM) | fraction unbound [42]: 0.23 | fraction unbound [43]: 0.23 | fraction unbound [44]: 0.23 | Papp [46]: 16.4 ×10⁻⁶ cm/s | inhibition [47]: < 10% | inhibition [48]: < 10% | inhibition [49]: < 10% | half-life [50]: > 40 min | half-life [51]: > 40 min | half-life [52]: > 40 min | half-life [53]: > 40 min | half-life [54]: > 40 min | IC50 [55]: > 30 µM | IC50 [56]: > 30 µM | IC50 [57]: > 30 µM | IC50 [58]: > 30 µM | IC50 [59]: > 30 µM | Ki [4]: 7.3 nM | Ki [5]: 3.8 nM
Structure (SMILES): O=C1NN=C(c2ccc(OC3CCN(C4CCC4)CC3)cc2)[C@H]2C[C@@H]12
Activity [7]: Active | Activity [8]: Non-toxic | Activity [9]: Non-toxic | Activity [10]: Non-toxic | Time [11]: 174 min | Activity [12]: 90% | Time [13]: 217 min | Time [14]: 189 min | Activity [15]: >90% | Time [16]: 129 min | Time [17]: 121 min | Activity [18]: Dose-dependent effect | ED50 [24]: 0.14 mg/kg | inhibition [24]: Dose-dependent effect | IC50 [45]: 14 µM
